Where a name gives a salt, the structure may show the parent alone. Read-outs that look alike come from different tables or passages of the source. Bridge positions count the residues as written; N and C are the ends. Ends that are not written are not given here.

Consider 28 molecules from publication PMC8078842 (PLoS Neglected Tropical Diseases, 2021).

For series [1], the target named is Glutamate, AMPA Site (Ionotropic). On the set-up: method as in PERKIN ELMER. Conditions: reference compound of the assay; ref PERKIN ELMER; cited from earlier work.
In series [2] the target is Nicotinic, Neuronal (a-BnTx insensitive). On the set-up: method as in PERKIN ELMER. Conditions: reference compound of the assay; ref PERKIN ELMER; cited from earlier work.
In series [3] the target is Imidazoline, I2 [central]. On the set-up: method as in PERKIN ELMER. Conditions: reference compound of the assay; ref PERKIN ELMER; cited from earlier work.
Another series has as its target Sodium, Site 2. More on the design: method as in PERKIN ELMER. Conditions: reference compound of the assay; ref PERKIN ELMER; cited from earlier work.
The target in series [4] is Adrenergic, Beta, Non-selective. On the set-up: method as in PERKIN ELMER. Conditions: reference compound of the assay; ref PERKIN ELMER; cited from earlier work.
Series [5] concerns the target Decarboxylase, Glutamic Acid. More on the design: method as in PERKIN ELMER. Conditions: reference compound of the assay; ref PERKIN ELMER; cited from earlier work.
Series [6] addresses Muscarinic, Non-selective, Central. More on the design: method as in PERKIN ELMER. Conditions: reference compound of the assay; ref PERKIN ELMER; cited from earlier work.
Another series deals with Esterase, Acetylcholine. More on the design: method as in PERKIN ELMER. Particulars: reference compound of the assay; ref PERKIN ELMER; cited from earlier work.
The target in series [7] is Potassium Channel, ATP-Sensitive. More on the design: method as in PERKIN ELMER. Conditions: reference compound of the assay; ref PERKIN ELMER; cited from earlier work.
Series [8] has as its target Glutamate, Kainate Site (Ionotropic). More on the design: method as in PERKIN ELMER. Particulars: reference compound of the assay; ref PERKIN ELMER; cited from earlier work.
Series [9] concerns the target Glutamate,NMDA,Glycine (Stry-insens Site) (Ionot). Conditions: read-out: Reference Ki; reference compound of the assay; ref PERKIN ELMER; cited from earlier work.
A further series deals with Melatonin, Non-selective. More on the design: method as in PERKIN ELMER. Particulars: reference compound of the assay; ref PERKIN ELMER; cited from earlier work.
The target of series [10] is Glutamate, NMDA Agonist Site (Ionotropic). More on the design: method as in PERKIN ELMER. Conditions: reference compound of the assay; ref PERKIN ELMER; cited from earlier work.
Series [11] has as its target Nitric Oxide, NOS (Neuronal-Binding). More on the design: method as in PERKIN ELMER. Particulars: reference compound of the assay; ref PERKIN ELMER; cited from earlier work.
A further series addresses Adenosine, Non-selective. Conditions: read-out: Reference Ki; reference compound of the assay; ref PERKIN ELMER; cited from earlier work.
The target in series [12] is GABA A, BDZ, alpha 1 site. Particulars: read-out: Reference Ki; reference compound of the assay; ref PERKIN ELMER; cited from earlier work.
The target of series [13] is Glycine, Strychnine-sensitive. Particulars: read-out: Reference Ki; reference compound of the assay; ref PERKIN ELMER; cited from earlier work.
For series [14], the target named is T1, Oxidase, MAO-A-Peripheral (Rattus norvegicus, UniProt P21396).
T1 sequence (P21396 1-526): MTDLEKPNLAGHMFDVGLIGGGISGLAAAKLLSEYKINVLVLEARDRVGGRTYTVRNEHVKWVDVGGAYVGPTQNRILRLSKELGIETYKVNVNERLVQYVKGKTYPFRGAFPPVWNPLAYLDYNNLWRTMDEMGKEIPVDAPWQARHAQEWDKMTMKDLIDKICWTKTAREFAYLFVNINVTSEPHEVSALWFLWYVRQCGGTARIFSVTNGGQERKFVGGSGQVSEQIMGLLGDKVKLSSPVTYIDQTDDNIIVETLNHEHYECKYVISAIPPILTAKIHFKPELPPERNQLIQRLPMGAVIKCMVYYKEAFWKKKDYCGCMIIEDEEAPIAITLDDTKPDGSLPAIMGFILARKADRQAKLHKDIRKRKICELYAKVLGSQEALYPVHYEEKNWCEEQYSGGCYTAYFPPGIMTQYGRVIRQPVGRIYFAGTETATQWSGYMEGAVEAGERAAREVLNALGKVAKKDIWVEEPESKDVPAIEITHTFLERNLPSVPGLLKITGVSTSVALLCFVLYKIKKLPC
More on the design: method as in PERKIN ELMER. Conditions: reference compound of the assay; ref PERKIN ELMER; cited from earlier work.

A further series addresses Histamine, H1. More on the design: method as in PERKIN ELMER. Conditions: reference compound of the assay; ref PERKIN ELMER; cited from earlier work.
Another series concerns P-gp (human MDR1). Put plainly: in vitro. Conditions: dog, UPLC-MS/MS.
The conditions of series [15]: cited from earlier work.
The target of series [16] is Glutamate, MK-801 Site (Ionotropic). On the set-up: method as in PERKIN ELMER. Particulars: reference compound of the assay; ref PERKIN ELMER; cited from earlier work.
The target in another series is Angiotensin II, AT2. On the set-up: method as in PERKIN ELMER. Particulars: reference compound of the assay; ref PERKIN ELMER; cited from earlier work.
For series [17], the target named is Potassium Channel, Ca2+ Act., VI. On the set-up: method as in PERKIN ELMER. Conditions: reference compound of the assay; ref PERKIN ELMER; cited from earlier work.
The target in series [18] is Cholecystokinin, CCK2 (CCKB). On the set-up: method as in PERKIN ELMER. Particulars: reference compound of the assay; ref PERKIN ELMER; cited from earlier work.
The test system of a further series is human red blood cells. Description: Haemolysis assay. The series is classed as cell-based. The protocol:
Haemolysis Assay. The assay is based on the protocol detailed by. To determine the total blood haemoglobin, the CMH method was used to map a standard curve based on the absorption wavelength at 540 nm. Nine calibration standards were produced by preparing a stock solution of 5 mg/ml (standard 1) using haemoglobin standards in CMH reagent and serially diluting it to produce further standards of concentrations 2.5, 1, 0.80, 0.40, 0.20, 0.10, 0.05, and 0.025 mg/ml. 10% Triton X-100 (v/v) was prepared using distilled water to be used as the positive control. A 0.05% solution of DMSO was prepared using distilled water and used as one of the negative controls. 0.9% saline was another negative control. Pluronic samples were prepared in 0.9% saline.
A 5 ml vial of whole blood was centrifuged at 800 g for 15 minutes at room temperature. The supernatant was removed, and the […] was used to determine the plasma free haemoglobin (PFH) concentration.
200 μl x 2 of each of the calibration standards prepared were then transferred onto the 96-well plate and 200 μl x 4 of CMH reagent (control 1). […] After shaking it gently for a few minutes, the absorbance was read at 540 nm. […] 100 μl of CMH reagent was added to all these before measuring the absorbance spectrophotometrically at 540 nm. Using the calibration curve mapped earlier, the haemoglobin concentration in each of the wells was determined. […]

Series [19] has as its target Corticotropin Releasing Factor, Non-selective. More on the design: method as in PERKIN ELMER. Conditions: reference compound of the assay; ref PERKIN ELMER; cited from earlier work.
[20] abbreviates: MDCK-MDR1, pH 7.4, Papp A2B Replicate 1, 10 µM.
Setting [21] is: MDCK-MDR1, pH 7.4, Papp A2B Replicate 2, 10 µM.
The mark [22] stands for this setting: MDCK-MDR1, pH 7.4, Papp B2A Replicate 1, 10 µM.
[23] abbreviates: MDCK-MDR1, pH 7.4, Papp B2A Replicate 2, 10 µM.

In general, Ki refers to a dissociation constant, usually derived from enzyme kinetics or from competition with a known ligand. Regarding `Cc1o[nH]c(=O)c1CC(N)C(=O)O` (racemic) [(+/-) AMPA HBr], the Ki in series [1] was 90.7 nM.

For `Clc1ccc([C@@H]2C[C@H]3CC[C@@H]2N3)cn1` (racemic) [(+/-) Epibatidine], the Ki in [2] is 0.0912 nM.

In the case of `c1ccc2oc(C3=NCCN3)cc2c1` [2-BFI], the Ki in series [3] was 0.381 nM.

`CCN1C[C@]2(COC)[C@H](O)C[C@H](OC)[C@@]34[C@@H]5C[C@@]6(O)[C@H](OC(=O)c7ccccc7)[C@@H]5[C@@](OC(C)=O)([C@@H]([C@H](OC)[C@H]23)[C@@H]14)[C@@H](O)[C@@H]6OC` [Aconitine]: the Ki on Sodium, Site 2 is 2290 nM.

In the case of `C=CCc1ccccc1OCC(O)CNC(C)C` (centres unmarked) [Alprenolol HCl], the Ki in [4] is 4.55 nM.

Consider `NOCC(=O)O` [AminoOxy acetic acid], for which, in [5], the Ki was 1170 nM.

Consider `CN1[C@@H]2CC[C@H]1C[C@@H](OC(=O)C(CO)c1ccccc1)C2` (some centres unmarked) [Atropine sulfate], for which, in series [6], the Ki was 0.311 nM.

`CNC(=O)Oc1ccc2c(c1)[C@]1(C)CCN(C)[C@@H]1N2C` [Eserine (Physostigmine)]: the Ki at Esterase, Acetylcholine is 385 nM.

`COc1ccc(Cl)cc1C(=O)NCCc1ccc(S(=O)(=O)NC(=O)NC2CCCCC2)cc1` [Glibenclamide]: the Ki in series [7] is 0.781 nM.

As for `C=C(C)[C@H]1CN[C@H](C(=O)O)[C@H]1CC(=O)O` [Kainic Acid], the Ki in series [8] is 10.8 nM.

Consider `O=C(O)/C(=C/c1c(C(=O)O)[nH]c2cc(Cl)cc(Cl)c12)c1ccccc1` [MDL-105,519], for which the Ki in series [9] is 31.5 nM.

As to `COc1ccc2[nH]cc(CCNC(C)=O)c2c1` [Melatonin], the Ki on Melatonin, Non-selective was […].

With `CN[C@H](CC(=O)O)C(=O)O` [NMDA], the Ki in series [10] was 6810 nM.

Turning to `NC(=NCCC[C@H](N)C(=O)O)N[N+](=O)[O-]` [NOARG (Nitro-L-Arginine)], the Ki in [11] is 26.3 nM.

As to `CCNC(=O)[C@H]1O[C@@H](n2cnc3c(N)ncnc32)[C@H](O)[C@@H]1O` [Neca], the Ki at Adenosine, Non-selective was 7.46 nM.

For the molecule `CCOC(=O)c1ncn2c1CN(C)C(=O)c1cc(F)ccc1-2` [Ro15-1788 (Flumazenil)], the inhibition constant Ki in [12] was 0.721 nM.

On to `O=C1C[C@@H]2OCC=C3CN4CC[C@]56c7ccccc7N1[C@H]5[C@H]2[C@H]3C[C@H]46` [Strychnine nitrate], for which, in [13], the Ki is 28.1 nM.

As to `c1cc2c(cc1C1CCCCC1)c1c3n2CCNC3CCC1` (centres unmarked) [Tetrindole mesylate], the Ki in series [14] was 23.4 nM.

As for `Cc1ccc(/C(=C\CN2CCCC2)c2ccccn2)cc1` [Triprolidine], the Ki at Histamine, H1 was 7.33 nM.

A word on the Papp A→B: it is the apparent permeability from the apical to the basolateral side of a cell layer. By Papp B→A is commonly meant the apparent permeability from the basolateral to the apical side of a cell layer. For the molecule `COc1cc2nc(N3CCN(C(=O)c4ccco4)CC3)nc(N)c2cc1OC` [prazosin], the Papp A→B at 1 h, 10 µM is 2.48 ×10⁻⁶ cm/s in the series on P-gp (human MDR1) (setting [20]) and 1.96 ×10⁻⁶ cm/s with P-gp (human MDR1) (setting [21]). In addition, the Papp B→A at 1 h, 10 µM with P-gp (human MDR1) (setting [22]) is 69.5 ×10⁻⁶ cm/s; in the series on P-gp (human MDR1) (setting [23]), 70.7 ×10⁻⁶ cm/s.

With `CC(C)NCC(O)COc1cccc2ccccc12` (centres unmarked) [propranolol], the Papp A→B at 1 h, 10 µM with P-gp (human MDR1) (setting [20]) was 34.1 ×10⁻⁶ cm/s; with P-gp (human MDR1) (setting [21]), 28 ×10⁻⁶ cm/s. Besides, the Papp B→A at 1 h, 10 µM in the series on P-gp (human MDR1) (setting [22]) stood at 41.4 ×10⁻⁶ cm/s; with P-gp (human MDR1) (setting [23]), 41.6 ×10⁻⁶ cm/s.

With `c1cc2ccc3cccc4ccc(c1)c2c34` [pyrene], the “log P for pyrene/Pluronics” value in [15] (F68) is on record as “ca. 2.5”; in series [15] (P105), around 3.5.

For the molecule (+)-MK-801 HMaleate, the Ki in series [16] is 12.4 nM.

As for Angiotensin II (Human), the Ki at Angiotensin II, AT2 is 0.255 nM.

With “Apamin (CNCKAPETALCARRCQQH-NH2; disulfide 1-11, 3-15; ends not checked; UniProt P01500 28-45, looked up)”, in series [17], the inhibition constant Ki was 0.205 nM.

On to CCK-8 (sulfated), for which, in [18], the Ki was 0.307 nM.

With Triton X-100 [10% Triton X-100], in the series with human red blood cells, the haemolysis entry was “caused haemolysis”.

For Tyr0-oCRF, the Ki in [19] is 10.7 nM.
